Drawing on patent publication US8389527B2, “Substituted imidazopyridazines useful as kinase inhibitors” (Bristol-Myers Squibb Company, priority 2008, dated 2013), this text covers IC50 for 20 compounds.

The target of assay [1] is T1, recombinant CK2A2 (Homo sapiens, UniProt P19784).
T1 construct: purchased Upstate Biotechnology
Kind of assay: CK2 kinase assay (CK2A2), [γ-33P]ATP filter-binding. Particulars: recombinant CK2A2 5 nM, ATP 5 μM, 10 μM peptide substrate, 30° C. 1 h. Format: biochemical. The method, then:
(§1) The effectiveness of compounds of the present invention as inhibitors of protein kinases can be readily tested by assays known to those skilled in the art. For example, in vitro protein kinase assays may be conducted with a relevant purified protein kinase and an appropriate synthetic substrate to determine the inhibitory activities of the compounds. […] Reaction mixtures were incubated at 30° C. for 1 h, and reaction products were captured by binding to phosphocellulose (P81) filter plates. Incorporation of radioactive phosphate into the peptide substrate was determined by liquid scintillation counting. The potency of compounds in inhibiting CK2 is expressed as IC50, defined as the concentrations of compounds required to inhibit the enzymatic activity by 50%.

For assay [2], the target named is T2, recombinant CK2A1 (Homo sapiens, UniProt P68400).
T2 construct: purchased Invitrogen
T2 sequence (P68400 whole entry): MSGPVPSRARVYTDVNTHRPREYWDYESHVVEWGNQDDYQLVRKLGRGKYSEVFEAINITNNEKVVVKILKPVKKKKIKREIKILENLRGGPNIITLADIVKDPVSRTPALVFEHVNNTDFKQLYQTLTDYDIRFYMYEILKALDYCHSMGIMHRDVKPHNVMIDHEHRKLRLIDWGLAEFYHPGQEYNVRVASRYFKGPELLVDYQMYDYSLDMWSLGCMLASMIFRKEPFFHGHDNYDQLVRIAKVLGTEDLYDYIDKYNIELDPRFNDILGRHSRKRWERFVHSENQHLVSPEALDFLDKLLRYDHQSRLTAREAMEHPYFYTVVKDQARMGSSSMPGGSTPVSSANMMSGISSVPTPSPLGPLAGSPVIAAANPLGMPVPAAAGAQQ
In words: CK2 kinase assay (CK2A1), [γ-33P]ATP filter-binding. The class given is biochemical. Particulars: recombinant CK2A1 10 nM, ATP 25 μM, 10 μM peptide substrate, 30° C. 1 h. The method, then:
as §1

The subject of assay [3] is HCT116. Kind of assay: Cell proliferation inhibition assay (MTT, CellTiter96). Format: cell-based. Particulars: Homo sapiens, HCT-116; HCT116 cells, 72 h with compound, MTT readout. The method, then: B. Cell Proliferation Inhibition Assay
Compounds were evaluated for their ability to inhibit cell proliferation, using an assay that measures mitochondrial metabolic activity, that is directly correlated with cell numbers. Cells were plated at 2000 cells/well in 96-well plates and were cultured for 24 h in RPMI-1640 supplemented with 2% fetal bovine serum, before test compounds were added. Compounds were diluted in culture medium such that the final concentration of dimethyl sulfoxide never exceeded 1%. Following the addition of compounds, the cells were cultured for an additional 72 h before cell viability was determined by measuring the conversion of 3-(4,5-dimethylthiazol-2-yl)-2,5-diphenyltetrazolium bromide (MTT) dye using the CellTiter96 kit (Promega).

T1 sequence (P19784 whole entry): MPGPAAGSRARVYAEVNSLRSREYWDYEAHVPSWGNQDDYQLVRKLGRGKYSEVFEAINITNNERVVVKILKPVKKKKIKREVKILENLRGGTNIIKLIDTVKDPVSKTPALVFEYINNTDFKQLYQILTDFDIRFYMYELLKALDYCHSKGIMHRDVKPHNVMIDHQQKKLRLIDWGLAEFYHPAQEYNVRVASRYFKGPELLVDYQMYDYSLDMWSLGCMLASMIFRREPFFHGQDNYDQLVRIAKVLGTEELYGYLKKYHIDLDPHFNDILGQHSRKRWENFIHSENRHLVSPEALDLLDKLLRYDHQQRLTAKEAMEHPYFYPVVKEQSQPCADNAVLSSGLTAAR

Take `N#CCC(=O)N[C@H]1CC[C@H](Nc2cc(Nc3nccs3)c3ncc(C(=O)Nc4ccnc(Cl)c4)n3n2)CC1` [Example 562, N-(2-chloro-4-pyridinyl)-6-((trans-4-((cyanoacetyl)amino)cyclohexyl)amino)-8-(1,3-thiazol-2-ylamino)imidazo [1,2-b]pyridazine-3-carboxamide]: the IC50 (as a rule, the midpoint of a concentration-inhibition curve) was found to be 1.2 nM in assay [1], 9.7 nM in assay [2] and 60 nM in assay [3].

As to `N[C@@H](CO)C(=O)N[C@H]1CC[C@H](Nc2cc(NC3CC3)c3ncc(C(=O)Nc4ccnc(Cl)c4)n3n2)CC1` [Example 197, N-(2-chloro-4-pyridinyl)-8-(cyclopropylamino)-6-((trans-4-(L-serylamino)cyclohexyl)amino)imidazo [1,2-b]pyridazine-3-carboxamide], the IC50 in assay [1] came to 0.8 nM; in assay [2], 13.5 nM; in assay [3], 230 nM.

As for `CN(C)[C@H]1CCN(C(=O)N[C@H]2CC[C@H](Nc3cc(NC4CC4)c4ncc(C(=O)Nc5ccnc(Cl)c5)n4n3)CC2)C1` [Example 272, N-(2-chloro-4-pyridinyl)-8-(cyclopropylamino)-6-((trans-4-((((3S)-3-(dimethylamino)-1-pyrrolidinyl)carbonyl)amino)cyclohexyl)amino) imidazo[1,2-b]pyridazine-3-carboxamide], the IC50 was determined as 0.8 nM in assay [1], 1.9 nM in assay [2] and 400 nM in assay [3].

Take `N[C@H]1CC[C@H](Nc2cc(N[C@H]3C[C@@H](CO)C3)c3ncc(C(=O)Nc4ccncc4F)n3n2)CC1` [Example 476, 6-((trans-4-aminocyclohexyl)amino)-N-(3-fluoro-4-pyridinyl)-8-((cis-3-(hydroxymethyl)cyclobutyl)amino) imidazo[l,2-b]pyridazine-3-carboxamide]: the results for the IC50 in assay [1], in assay [2] and in assay [3] were 46 nM, 43 nM and 2310 nM, respectively.

`N[C@@H](C(=O)N[C@H]1CC[C@H](Nc2cc(NC3CC3)c3ncc(C(=O)Nc4ccnc(Cl)c4)n3n2)CC1)c1ccccc1` [Example 172, 6-((trans-4-(((2R)-2-amino-2-phenylacetyl)amino)cyclohexyl)amino)-N-(2-chloro-4-pyridinyl)-8-(cyclopropylamino)imidazo [1,2-b]pyridazine-3-carboxamide]: the results for the IC50 in assay [1], in assay [2] and in assay [3] were 0.9 nM, 37.3 nM and 360 nM, respectively.

As to `NCC(=O)N[C@H]1CC[C@H](Nc2cc(NC3CC3)c3ncc(C(=O)Nc4ccnc(Cl)c4)n3n2)CC1` [Example 163, N-(2-chloro-4-pyridinyl)-8-(cyclopropylamino)-6-((trans-4-(glycylamino)cyclohexyl)amino)imidazo [1,2-b]pyridazine-3-carboxamide], the IC50 in assay [1] was 0.4 nM; in assay [2] it was 29.6 nM; in assay [3] it was 560 nM.

As to `CC(C)CN[C@H]1CC[C@H](Nc2cc(NC3CC3)c3ncc(C(=O)Nc4ccnc(Cl)c4)n3n2)CC1` [Example 538, N-(2-chloro-4-pyridinyl)-8-(cyclopropylamino)-6-((trans-4-(isobutylamino)cyclohexyl)amino)imidazo [1,2-b]pyridazine-3-carboxamide], the IC50 in assay [1] was 42 nM; in assay [2] it was 331 nM; in assay [3] it was 340 nM.

For `Nc1cc(N[C@H]2CC[C@H](N)CC2)nn2c(C(=O)Nc3ccncc3)cnc12` [Example 39, 8-amino-6-(4-aminocyclohexylamino)-N-(pyridin-4-yl)imidazo[1,2-b]pyridazine-3-carboxamide], the IC50 worked out at 43 nM in assay [1], 102 nM in assay [2] and 9950 nM in assay [3].

As to `O=C(Nc1ccnc(F)c1)c1cnc2c(NC3CC3)cc(N[C@H]3CC[C@H](N4CCOCC4)CC3)nn12` [Example 27, 8-(cyclopropylamino)-N-(2-fluoropyridin-4-yl)-6-((trans)-4-morpholinocyclohexylamino)imidazo[1,2-b]pyridazine-3-carboxamide], the IC50 in assay [1] is 72 nM; in assay [2], 247 nM; in assay [3], 430 nM.

Take `O=C(Nc1ccnc(Cl)c1)c1cnc2c(Nc3ccon3)cc(N[C@H]3CC[C@H](O)CC3)nn12` [Example 549, N-(2-chloro-4-pyridinyl)-6-((trans-4-hydroxycyclohexyl)amino)-8-(3-isoxazolylamino) imidazo[1,2-b]pyridazine-3-carboxamide]: the values for the IC50 in assay [1], in assay [2] and in assay [3] were 0.03 nM, 26.3 nM and 20 nM, respectively.

Turning to `N[C@H]1CC[C@H](Nc2cc(NC3CCC3)c3ncc(C(=O)Nc4ccncc4)n3n2)CC1` [Example 3, 6-((trans-4-aminocyclohexyl)amino)-8-(cyclobutylamino)-N-4-pyridinylimidazo[1,2-b]pyridazine-3-carboxamide], the IC50 in assay [1] was 15 nM; in assay [2], 35 nM; in assay [3], 80 nM.

For the compound `CN(C)CCOc1ccc(Nc2cc(N[C@H]3CC[C@H](N)CC3)nn3c(C(=O)Nc4ccncc4F)cnc23)cc1` [Example 501, 6-((trans-4-aminocyclohexyl)amino)-8-((4-(2-(dimethylamino)ethoxy)phenyl)amino)-N-(3-fluoro-4-pyridinyl)imidazo[1,2-b]pyridazine-3-carboxamide], the IC50 in assay [1] turned out to be 87 nM; in assay [2], 234 nM; in assay [3], 450 nM.

Take `N[C@H](Cc1cccnc1)C(=O)N[C@H]1CC[C@H](Nc2cc(NC3CC3)c3ncc(C(=O)Nc4ccnc(Cl)c4)n3n2)CC1` [Example 202, N-(2-chloro-4-pyridinyl)-8-(cyclopropylamino)-6-((trans-4-((3-(3-pyridinyl)-D-alanyl)amino)cyclohexyl)amino)imidazo [1,2-b]pyridazine-3-carboxamide]: the values for the IC50 in assay [1], in assay [2] and in assay [3] were 1.7 nM, 9.5 nM and 430 nM, respectively.

With `N#CCC(=O)N[C@H]1CC[C@H](Nc2cc(NC3CC3)c3ncc(C(=O)Nc4ccnc(F)c4)n3n2)CC1` [Example 138, 6-((trans-4-((cyanoacetyl)amino)cyclohexyl)amino)-8-(cyclopropylamino)-N-(2-fluoro-4-pyridinyl)imidazo [1,2-b]pyridazine-3-carboxamide], the values for the IC50 in assay [1], in assay [2] and in assay [3] were 9 nM, 21 nM and 610 nM, respectively.

Regarding `N[C@H]1CC[C@H](Nc2cc(NC3CC3)c3ncc(C(=O)Nc4ccncc4F)n3n2)CC1` [Example 468, 6-((trans-4-aminocyclohexyl)amino)-8-(cyclopropylamino)-N-(3-fluoro-4-pyridinyl)imidazo [1,2-b]pyridazine-3-carboxamide], the IC50 stood at 3 nM in assay [1], 7 nM in assay [2] and 90 nM in assay [3].

Regarding `N[C@H]1CC[C@H](Nc2cc(Nc3ncccc3O)c3ncc(C(=O)Nc4ccncc4)n3n2)CC1` [Example 378, 6-((trans-4-aminocyclohexyl)amino)-8-((3-hydroxy-2-pyridinyl)amino)-N-4-pyridinyl-imidazo[1,2-b]pyridazine-3-carboxamide], the IC50 in assay [1] is 290 nM; in assay [2], 205 nM; in assay [3], over 1000 nM.

For the compound `C[C@H](CN)C(=O)N[C@H]1CC[C@H](Nc2cc(NC3CC3)c3ncc(C(=O)Nc4ccnc(Cl)c4)n3n2)CC1` [Example 146, 6-((trans-4-(((2R)-3-amino-2-methylpropanoyl)amino)cyclohexyl)amino) N-(2-chloro-4-pyridinyl)-8-(cyclopropylamino)imidazo [1,2-b]pyridazine-3-carboxamide], the values for the concentration for half-maximal inhibition (IC50) in assay [1], in assay [2] and in assay [3] were 1.5 nM, 25.9 nM and 590 nM, respectively.

Consider `Cc1cc(Nc2cc(N[C@H]3CC[C@H](N)CC3)nn3c(C(=O)Nc4ccnc(Cl)c4)cnc23)nn1C` [Example 542, 6-((trans-4-aminocyclohexyl)amino)-N-(2-chloro-4-pyridinyl)-8-((1,5-dimethyl-1H-pyrazol-3-yl)amino)imidazo[1,2-b]pyridazine-3-carboxamide], for which the IC50 was 18 nM in assay [1], 71 nM in assay [2] and 290 nM in assay [3].

Regarding `C[C@@H](N)C(=O)N[C@H]1CC[C@H](Nc2cc(Nc3ccccn3)c3ncc(C(=O)Nc4ccncc4F)n3n2)CC1` [Example 6, 6-((trans-4-(D-alanylamino)cyclohexyl)amino)-N-(3-fluoro-4-pyridinyl)-8-(2-pyridinylamino)imidazo[1,2-b]pyridazine-3-carboxamide], the IC50 in assay [1] amounted to 3 nM; in assay [2], 11 nM; in assay [3], 90 nM.

Consider `CC(C)n1ccc(Nc2cc(N[C@H]3CC[C@H](NC(=O)CC#N)CC3)nn3c(C(=O)Nc4ccnc(Cl)c4)cnc23)n1` [Example 559, N-(2-chloro-4-pyridinyl)-6-((trans-4-((cyanoacetyl)amino)cyclohexyl)amino)-8-((1-isopropyl-1H-pyrazol-3-yl)amino)imidazo[1,2-b] pyridazine-3-carboxamide], for which the IC50 in assay [1] was found to be 1 nM; in assay [2] it was 5.5 nM; in assay [3] it was 80 nM.
